Columns and labels:
Test in all cases: KinaseProfiler panel
Assay type in all cases: biochemical
Set-up in all cases: dose or concentration left out as unconfirmed
Conditions in all cases: activity remaining
PKD2(h) = PKD2(h) (Homo sapiens (Human), UniProt Q9BZL6)
Hck(h) activated = Hck(h) activated (Homo sapiens (Human), UniProt P08631)
mTOR/FKBP12(h) = mTOR/FKBP12(h) (Homo sapiens (Human), UniProt P42345)
TRB2(h) = TRB2(h) (Homo sapiens (Human), UniProt Q92519)
CDK17/cyclinY(h) = CDK17/cyclinY(h) (Homo sapiens (Human), UniProt Q00537)
Sequence of CDK17/cyclinY(h) (Q00537 whole entry): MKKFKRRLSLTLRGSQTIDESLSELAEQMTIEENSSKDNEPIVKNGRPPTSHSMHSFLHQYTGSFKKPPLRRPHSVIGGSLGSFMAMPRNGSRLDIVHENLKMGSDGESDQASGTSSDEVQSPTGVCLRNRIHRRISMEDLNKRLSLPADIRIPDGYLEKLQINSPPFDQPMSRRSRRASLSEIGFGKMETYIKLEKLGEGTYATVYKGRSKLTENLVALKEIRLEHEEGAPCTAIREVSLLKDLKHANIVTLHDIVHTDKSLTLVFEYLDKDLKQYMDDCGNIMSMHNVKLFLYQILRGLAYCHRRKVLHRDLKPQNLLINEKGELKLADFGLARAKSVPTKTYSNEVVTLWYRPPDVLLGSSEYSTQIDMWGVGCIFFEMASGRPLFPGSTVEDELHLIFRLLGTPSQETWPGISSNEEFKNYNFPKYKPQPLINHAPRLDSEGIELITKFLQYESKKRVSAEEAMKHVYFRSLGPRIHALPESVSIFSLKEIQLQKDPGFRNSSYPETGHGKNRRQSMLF
Sequence of CDK17/cyclinY(h) (Q8ND76 whole entry partner): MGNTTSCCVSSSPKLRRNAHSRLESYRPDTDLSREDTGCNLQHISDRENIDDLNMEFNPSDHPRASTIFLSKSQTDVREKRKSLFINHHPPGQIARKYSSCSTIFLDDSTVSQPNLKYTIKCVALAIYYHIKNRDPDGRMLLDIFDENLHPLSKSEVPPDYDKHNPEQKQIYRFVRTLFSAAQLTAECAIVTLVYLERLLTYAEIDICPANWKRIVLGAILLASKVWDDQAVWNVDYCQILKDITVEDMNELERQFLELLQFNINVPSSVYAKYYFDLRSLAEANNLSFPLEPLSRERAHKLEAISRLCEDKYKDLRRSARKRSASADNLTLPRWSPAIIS

NEK2(h) = NEK2(h) (Homo sapiens (Human), UniProt P51955)
MELK(h) = MELK(h) (Homo sapiens (Human), UniProt Q14680)
CDK12/cyclinK(h) = CDK12/cyclinK(h) (Homo sapiens (Human), UniProt Q9NYV4)
IKKβ(h) = IKKβ(h) (Homo sapiens (Human), UniProt O14920)
STK25(h) = STK25(h) (Homo sapiens (Human), UniProt O00506)
STK32A(h) = STK32A(h) (Homo sapiens (Human), UniProt Q8WU08)
Sequence of STK32A(h) (Q8WU08 whole entry): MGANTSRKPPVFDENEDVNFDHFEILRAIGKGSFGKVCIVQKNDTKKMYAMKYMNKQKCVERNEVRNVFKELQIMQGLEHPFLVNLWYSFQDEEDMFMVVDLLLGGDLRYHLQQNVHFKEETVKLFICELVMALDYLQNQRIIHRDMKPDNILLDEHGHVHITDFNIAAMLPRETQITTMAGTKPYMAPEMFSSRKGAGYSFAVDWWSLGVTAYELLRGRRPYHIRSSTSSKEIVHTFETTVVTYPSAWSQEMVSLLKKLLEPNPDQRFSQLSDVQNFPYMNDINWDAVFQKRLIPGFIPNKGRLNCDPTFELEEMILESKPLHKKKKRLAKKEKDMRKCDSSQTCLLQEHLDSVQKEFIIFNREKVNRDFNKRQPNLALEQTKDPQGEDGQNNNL

ROCK-I(h) = ROCK-I(h) (Homo sapiens (Human), UniProt Q13464)
CDK5/p25(h) = CDK5/p25(h) (Homo sapiens (Human), UniProt Q00535)
ZAK(h) = ZAK(h) (Homo sapiens (Human), UniProt Q9NYL2)
TTBK1(h) = TTBK1(h) (Homo sapiens (Human), UniProt Q5TCY1)
Sequence of TTBK1(h) (Q5TCY1 whole entry): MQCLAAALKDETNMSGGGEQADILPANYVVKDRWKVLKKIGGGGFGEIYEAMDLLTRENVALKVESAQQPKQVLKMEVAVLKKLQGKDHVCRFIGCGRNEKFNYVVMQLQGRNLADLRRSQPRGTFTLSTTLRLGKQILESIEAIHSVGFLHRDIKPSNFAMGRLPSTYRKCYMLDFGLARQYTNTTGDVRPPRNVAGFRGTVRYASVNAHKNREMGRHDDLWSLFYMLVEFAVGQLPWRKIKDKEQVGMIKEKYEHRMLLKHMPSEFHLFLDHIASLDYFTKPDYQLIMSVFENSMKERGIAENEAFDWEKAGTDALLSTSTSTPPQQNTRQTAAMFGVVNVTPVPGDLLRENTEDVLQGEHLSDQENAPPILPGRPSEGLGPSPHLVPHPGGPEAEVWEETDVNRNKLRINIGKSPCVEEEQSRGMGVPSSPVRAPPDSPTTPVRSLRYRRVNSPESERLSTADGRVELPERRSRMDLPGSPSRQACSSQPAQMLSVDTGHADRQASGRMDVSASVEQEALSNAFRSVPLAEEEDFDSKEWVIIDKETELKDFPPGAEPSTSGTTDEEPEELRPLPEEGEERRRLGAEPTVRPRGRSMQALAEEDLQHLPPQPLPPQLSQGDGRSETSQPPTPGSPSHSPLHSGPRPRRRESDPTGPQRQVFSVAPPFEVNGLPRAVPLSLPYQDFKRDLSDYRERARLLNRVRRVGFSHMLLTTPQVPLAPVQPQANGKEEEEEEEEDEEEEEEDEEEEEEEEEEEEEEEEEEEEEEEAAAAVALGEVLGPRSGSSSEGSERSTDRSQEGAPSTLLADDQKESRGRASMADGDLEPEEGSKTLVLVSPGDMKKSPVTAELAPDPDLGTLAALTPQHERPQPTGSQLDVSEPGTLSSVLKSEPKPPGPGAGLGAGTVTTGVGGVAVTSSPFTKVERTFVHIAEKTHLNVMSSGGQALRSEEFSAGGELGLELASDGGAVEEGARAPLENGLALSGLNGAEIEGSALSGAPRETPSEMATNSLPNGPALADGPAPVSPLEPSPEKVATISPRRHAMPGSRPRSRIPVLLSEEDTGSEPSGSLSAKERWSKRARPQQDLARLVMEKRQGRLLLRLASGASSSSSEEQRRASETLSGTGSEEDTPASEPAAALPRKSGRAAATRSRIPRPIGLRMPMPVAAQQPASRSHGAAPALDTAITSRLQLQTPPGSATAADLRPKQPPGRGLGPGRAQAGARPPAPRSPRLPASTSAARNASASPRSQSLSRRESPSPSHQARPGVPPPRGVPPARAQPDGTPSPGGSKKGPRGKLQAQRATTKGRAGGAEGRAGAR

MLK1(h) = MLK1(h) (Homo sapiens (Human), UniProt P80192)
Sequence of MLK1(h) (P80192 whole entry): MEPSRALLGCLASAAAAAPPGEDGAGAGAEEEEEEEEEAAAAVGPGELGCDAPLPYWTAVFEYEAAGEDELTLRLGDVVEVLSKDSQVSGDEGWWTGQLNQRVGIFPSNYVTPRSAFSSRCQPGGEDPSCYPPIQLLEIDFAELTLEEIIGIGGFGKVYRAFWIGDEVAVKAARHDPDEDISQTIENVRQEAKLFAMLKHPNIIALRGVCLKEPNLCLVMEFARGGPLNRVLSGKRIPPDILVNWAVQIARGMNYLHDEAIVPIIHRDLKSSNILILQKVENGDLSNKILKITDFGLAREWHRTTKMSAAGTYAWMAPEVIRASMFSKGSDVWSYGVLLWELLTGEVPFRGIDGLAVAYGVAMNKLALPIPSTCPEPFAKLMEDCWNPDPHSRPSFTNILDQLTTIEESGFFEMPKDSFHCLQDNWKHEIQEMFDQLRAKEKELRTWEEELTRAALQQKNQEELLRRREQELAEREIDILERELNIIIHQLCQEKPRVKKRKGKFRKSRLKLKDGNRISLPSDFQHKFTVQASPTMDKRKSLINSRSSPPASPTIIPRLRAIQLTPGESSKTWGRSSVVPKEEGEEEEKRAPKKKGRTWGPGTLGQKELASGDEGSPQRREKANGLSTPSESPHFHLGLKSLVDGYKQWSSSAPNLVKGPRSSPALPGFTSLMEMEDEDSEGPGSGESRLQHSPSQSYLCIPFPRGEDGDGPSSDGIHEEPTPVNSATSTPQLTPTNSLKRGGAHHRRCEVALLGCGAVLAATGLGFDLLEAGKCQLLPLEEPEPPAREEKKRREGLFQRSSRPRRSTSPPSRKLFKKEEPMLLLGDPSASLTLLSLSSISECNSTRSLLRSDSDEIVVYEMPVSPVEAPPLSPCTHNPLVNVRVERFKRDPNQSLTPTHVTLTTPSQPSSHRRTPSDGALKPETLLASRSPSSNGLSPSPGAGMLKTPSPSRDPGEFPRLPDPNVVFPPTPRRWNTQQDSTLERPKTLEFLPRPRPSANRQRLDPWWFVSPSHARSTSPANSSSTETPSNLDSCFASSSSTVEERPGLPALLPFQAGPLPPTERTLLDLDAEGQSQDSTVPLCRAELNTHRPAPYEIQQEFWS

SAPK3(h) = SAPK3(h) (Homo sapiens (Human), UniProt P53778)
CaMKK2(h) = CaMKK2(h) (Homo sapiens (Human), UniProt Q96RR4)
PDHK4(h) = PDHK4(h) (Homo sapiens (Human), UniProt Q16654)
Met(h) = Met(h) (Homo sapiens (Human), UniProt P08581)
CK2α2(h) = CK2α2(h) (Homo sapiens (Human), UniProt P19784)
Sequence of CK2α2(h) (P19784 whole entry): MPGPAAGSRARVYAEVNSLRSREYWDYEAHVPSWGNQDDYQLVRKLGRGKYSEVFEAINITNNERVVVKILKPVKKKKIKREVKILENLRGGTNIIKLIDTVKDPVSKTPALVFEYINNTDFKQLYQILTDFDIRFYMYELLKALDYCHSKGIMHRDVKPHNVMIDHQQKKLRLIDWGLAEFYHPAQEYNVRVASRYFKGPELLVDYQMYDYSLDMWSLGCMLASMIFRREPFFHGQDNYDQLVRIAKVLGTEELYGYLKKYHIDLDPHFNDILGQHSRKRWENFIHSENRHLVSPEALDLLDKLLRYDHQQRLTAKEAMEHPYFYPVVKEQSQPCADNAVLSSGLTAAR

JAK2(h) = JAK2(h) (Homo sapiens (Human), UniProt O60674)
VRK2(h) = VRK2(h) (Homo sapiens (Human), UniProt Q86Y07)
Sequence of VRK2(h) (Q86Y07 whole entry): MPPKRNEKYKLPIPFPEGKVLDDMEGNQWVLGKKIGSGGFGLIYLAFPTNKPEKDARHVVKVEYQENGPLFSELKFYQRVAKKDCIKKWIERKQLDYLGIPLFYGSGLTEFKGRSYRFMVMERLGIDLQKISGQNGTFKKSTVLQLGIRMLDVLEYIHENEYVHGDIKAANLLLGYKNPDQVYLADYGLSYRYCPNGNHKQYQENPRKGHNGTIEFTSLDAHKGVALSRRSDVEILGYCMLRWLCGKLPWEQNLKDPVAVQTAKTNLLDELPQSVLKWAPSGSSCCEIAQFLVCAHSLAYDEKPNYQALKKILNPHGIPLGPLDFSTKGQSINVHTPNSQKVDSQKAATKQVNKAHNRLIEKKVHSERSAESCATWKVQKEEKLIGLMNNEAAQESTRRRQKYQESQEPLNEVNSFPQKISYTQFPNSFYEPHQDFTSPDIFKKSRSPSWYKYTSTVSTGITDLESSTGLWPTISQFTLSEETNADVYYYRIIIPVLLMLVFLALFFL

ALK1(h) = ALK1(h) (Homo sapiens (Human), UniProt P37023)
Pim-1(h) = Pim-1(h) (Homo sapiens (Human), UniProt P11309)
FAK(h) = FAK(h) (Homo sapiens (Human), UniProt Q05397)
BRK(h) = BRK(h) (Homo sapiens (Human), UniProt Q13882)
Sequence of BRK(h) (Q13882 whole entry): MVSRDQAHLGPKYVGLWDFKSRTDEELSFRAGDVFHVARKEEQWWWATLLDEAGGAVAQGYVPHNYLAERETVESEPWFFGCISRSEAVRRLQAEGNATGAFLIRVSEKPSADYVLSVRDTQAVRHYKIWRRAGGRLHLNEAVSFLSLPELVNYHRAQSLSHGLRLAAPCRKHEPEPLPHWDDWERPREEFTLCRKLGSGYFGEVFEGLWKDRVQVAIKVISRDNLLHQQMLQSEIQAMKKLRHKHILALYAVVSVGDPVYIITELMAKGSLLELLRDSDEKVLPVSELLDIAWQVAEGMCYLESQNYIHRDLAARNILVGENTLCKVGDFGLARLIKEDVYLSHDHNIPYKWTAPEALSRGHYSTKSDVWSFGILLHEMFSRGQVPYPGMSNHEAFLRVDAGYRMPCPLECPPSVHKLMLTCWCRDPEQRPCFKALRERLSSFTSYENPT

EphA5(h) = EphA5(h) (Homo sapiens (Human), UniProt P54756)
DDR2(h) = DDR2(h) (Homo sapiens (Human), UniProt Q16832)
PhKγ1(h) = PhKγ1(h) (Homo sapiens (Human), UniProt Q16816)
TSSK2(h) = TSSK2(h) (Homo sapiens (Human), UniProt Q96PF2)
MRCKβ(h) = MRCKβ(h) (Homo sapiens (Human), UniProt Q9Y5S2)
Pyk2(h) = Pyk2(h) (Homo sapiens (Human), UniProt Q14289)

Cc1cc2c(-c3ccc(NC(=O)[C@H](N)CC(C)(C)C)cc3C)ccnc2[nH]1 [Compound F-90, (2R)-2-Amino-4,4-dimethyl-N-[3-methyl-4-(2-methyl-1H-pyrrolo[2,3-b]pyridin-4-yl)phenyl]pentanamide]
% Activity (PKD2(h)): 95% | % Activity (Hck(h) activated): 111% | % Activity (mTOR/FKBP12(h)): 120% | % Activity (TRB2(h)): 104% | % Activity (CDK17/cyclinY(h)): 108% | % Activity (NEK2(h)): 118% | % Activity (MELK(h)): 82% | % Activity (CDK12/cyclinK(h)): 89% | % Activity (IKKβ(h)): 99% | % Activity (STK25(h)): 92% | % Activity (STK32A(h)): 90% | % Activity (ROCK-I(h)): 96% | % Activity (CDK5/p25(h)): 72% | % Activity (ZAK(h)): 83% | % Activity (TTBK1(h)): 96% | % Activity (MLK1(h)): 103% | % Activity (SAPK3(h)): 113% | % Activity (CaMKK2(h)): 96% | % Activity (PDHK4(h)): 101% | % Activity (Met(h)): 90% | % Activity (CK2α2(h)): 115% | % Activity (JAK2(h)): 104% | % Activity (VRK2(h)): 100% | % Activity (ALK1(h)): 94% | % Activity (Pim-1(h)): 95% | % Activity (FAK(h)): 96% | % Activity (BRK(h)): 83% | % Activity (EphA5(h)): 89% | % Activity (DDR2(h)): 85% | % Activity (PhKγ1(h)): 101% | % Activity (TSSK2(h)): 113% | % Activity (MRCKβ(h)): 100% | % Activity (Pyk2(h)): 76%

From patent US20250243196A1, “CITRON KINASE INHIBITORS” (The Cleveland Clinic Foundation, priority 2021, published 2025)
